According to patent US7879566B2, “Methods for the identification of modulators of OSGPR114 or OSGPR78 activity, and their use in the treatment of disease” (OSI Pharmaceuticals, Inc., priority 2003, dated 2011):

Assays:
paxillin in HCT-8 cells = experiment: Paxillin phosphorylation, activation state specific antibodies; type: cell-based, human; conditions: 10 uM
Procedure: (§1) FIGS. 25A-C. LPA (10 uM) activation of Shc (A), paxillin (B) and SHP-2(C) in HCT-8 cell lysates. Phospho-specific antibodies were used to detect the activated proteins.
(§2) Many of the growth and survival signaling pathways of cancer cells have been identified. […] The protein She is an adaptor protein and the protein phosphatase SHP-2 are known to link the activation of multiple growth factor receptors to their downstream signaling pathways in cancer cells (For review see Yart et al. (2003) Current Cancer Drug Targets 3:177-192). These proteins are involved in mitogenic signaling by linking growth stimuli to the Ras-mitogen-activated protein kinase cascade and the PI3K survival pathway. […] Additionally, paxillin is a scaffold molecule intricately involved in the regulation of focal adhesions in cancer cells. It is therefore involved in the regulation of cell spreading and motility and is controlled by a multitude of signaling moieties including growth factors, and their downstream signaling molecules. Paxillin recruits these signaling components into specific cell compartments known as focal adhesions (For review, see Schaller (2001) Oncogene 20:6459-72). […] By treating HCT-8 cells with LPA (10 uM), the effect of LPA on the phosphorylation of paxillin was measured using activation state specific antibodies ([…]).

CHO cells = experiment: FLIPR intracellular calcium assay, CHO cells; type: cell-based, hamster
Procedure: (§3) For example, in one method employed herein, CHO and CHO-114 cells were seeded at a concentration of 50K cells/well in […] growth media in clear, flat-bottom 96-well black assay plates and incubated overnight at 37 C. The growth media is aspirated from the cells and a dye solution ([…]) added to each well. The dye solution consists of 2 mM probenecid, 2 mM HBSS, […] in a growth media minus antibiotics solution. The cells are loaded with the dye for 1 h at 37 C before aspiration and rinsing with wash buffer (20 mM HBSS+2 mM Probenecid). Compound plates are then prepared with 4× compound/control. 150 ul of wash buffer is added to each well. Once the FLIPR is fully calibrated, compound is added to the plate and the release of calcium measured using 0.4 exposure length and a laser set at 0.3W.

Shc in HCT-8 cells = experiment: Shc activation, phospho-specific antibody; type: cell-based, human; conditions: 10 uM
Procedure: as §1, §2

[1] = tested on: Akt in CHO cell line stably transfected with OSGPR114; experiment: Akt phosphorylation, phospho-specific Akt antibody; type: cell-based; conditions: 10 uM, 3 minutes
Procedure: FIG. 26. Effect of LPA (10 μM), EGF (1 μM) and DMSO on levels of phospho-Akt as a in a CHO-K1 cell line stably transfected with OSGPR114.
The protein Akt is a well characterized survival pathway for many cancer cells and is a pathway that can be induced by multiple cell growth factors (For review, see Marte and Downward (1997) Trends Biochem. Sci. 22:355-358). […] The cells used for this experiment were a CHO cell line stably transfected with OSGPR114. The cells were treated with vehicle, LPA (10 uM) or EGF (1 uM) for 3 minutes.

SHP-2 in HCT-8 cells = experiment: SHP-2 activation, phospho-specific antibody; type: cell-based, human; conditions: 10 uM
Procedure: as §1, §2

OSGPR114 = molecular target: T1, OSGPR114 (Homo sapiens, UniProt Q9H1C0); experiment: FLIPR intracellular calcium assay, CHO-OSGPR114 cells; type: cell-based; conditions: FLIPR, read-out: EC50, intracellular calcium response
T1 construct: expressed in transfected cells; host or cells: engineered yeast (GPA1 replaced by G-alpha chimeras, STE3 deleted; Fus1p-LacZ reporters)
Procedure: as §3

HCT-8 cells [2] = experiment: LPA effect on cell proliferation (Cell TiterGlo); type: cell-based, human
Procedure: (§4) The effect of LPA on cell proliferation (Cell TiterGlo assay, Promega) and induction of apoptosis (Apo-One Caspase 3/7 assay, Promega) was measured in the presence and absence of serum. Cell-titer Glo is an assay that quantitates ATP as a measurement of the number of viable cells in a culture. The assay utilizes a luciferase-based luminescent signal. The Apo-One assay utilizes a profluorescent caspase 3/7 consensus substrate to measure the activation of caspase in the sample. The experiments were conducted in serum-free media as it is known that serum contains high concentrations of LPA (of the order of 10-30 uM). Briefly, cells were plated in 96-well plates at a density of 20,000 cells/well. After 24 h the serum-containing media was removed from the cells and replaced with either serum-containing or serum-free media. After 24 h LPA, at concentrations from 1-100 μM was added to the cells. 24 h later the induction of apoptosis and the level of cellular proliferation was measured using the Cell titer-glo or Caspase 3/7 Apo-One assay kits commercially available from Promega.

HCT-8 cells [3] = experiment: LPA effect on apoptosis (Apo-One Caspase 3/7); type: cell-based, human
Procedure: as §4

[4] = serum free conditions, LPA 1-100 μM, 24 h

T1 sequence (Q9H1C0 whole entry): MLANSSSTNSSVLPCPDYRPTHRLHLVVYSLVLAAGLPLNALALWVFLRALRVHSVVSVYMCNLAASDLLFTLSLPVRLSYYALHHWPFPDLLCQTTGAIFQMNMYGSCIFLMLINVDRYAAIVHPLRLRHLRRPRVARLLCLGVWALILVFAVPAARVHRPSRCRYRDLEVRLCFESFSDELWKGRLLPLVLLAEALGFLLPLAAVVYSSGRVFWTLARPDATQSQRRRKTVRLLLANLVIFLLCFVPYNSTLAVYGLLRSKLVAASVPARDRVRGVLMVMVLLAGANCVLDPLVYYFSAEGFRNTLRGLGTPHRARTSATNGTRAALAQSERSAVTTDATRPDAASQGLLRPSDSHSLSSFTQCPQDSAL

lysophosphatidic acid [LPA]
phosphorylated paxillin (paxillin in HCT-8 cells): highly significant increase in phosphorylated paxillin
change in intracellular calcium concentration (CHO cells): no significant change
phosphorylation of Shc (Shc in HCT-8 cells): induced the phosphorylation
phosphorylation of Akt [1]: stimulate phosphorylation of Akt
phosphorylation of SHP-2 (SHP-2 in HCT-8 cells): induced the phosphorylation
EC50 (OSGPR114): 59 nM
cell growth / proliferation (HCT-8 cells [2]; presence of 10% FCS): no statistically significant effects
cell growth / proliferation (HCT-8 cells [2]; [4]): induced growth of the cells in a concentration dependent manner
apoptosis (HCT-8 cells [3]; presence of 10% FCS): no statistically significant effects
apoptosis induced through serum starving (HCT-8 cells [3]; [4]): reversed apoptosis
